ChEMBL document CHEMBL1129937, “Synthesis and dihydrofolate reductase inhibitory activities of 2,4-diamino-5-deaza and 2,4-diamino-5,10-dideaza lipophilic antifolates” (J Med Chem, 1997)

How the values were obtained:
[1] = target: T1, Bifunctional dihydrofolate reductase-thymidylate synthase (Toxoplasma gondii, UniProt Q07422)
T1 sequence (Q07422 whole entry): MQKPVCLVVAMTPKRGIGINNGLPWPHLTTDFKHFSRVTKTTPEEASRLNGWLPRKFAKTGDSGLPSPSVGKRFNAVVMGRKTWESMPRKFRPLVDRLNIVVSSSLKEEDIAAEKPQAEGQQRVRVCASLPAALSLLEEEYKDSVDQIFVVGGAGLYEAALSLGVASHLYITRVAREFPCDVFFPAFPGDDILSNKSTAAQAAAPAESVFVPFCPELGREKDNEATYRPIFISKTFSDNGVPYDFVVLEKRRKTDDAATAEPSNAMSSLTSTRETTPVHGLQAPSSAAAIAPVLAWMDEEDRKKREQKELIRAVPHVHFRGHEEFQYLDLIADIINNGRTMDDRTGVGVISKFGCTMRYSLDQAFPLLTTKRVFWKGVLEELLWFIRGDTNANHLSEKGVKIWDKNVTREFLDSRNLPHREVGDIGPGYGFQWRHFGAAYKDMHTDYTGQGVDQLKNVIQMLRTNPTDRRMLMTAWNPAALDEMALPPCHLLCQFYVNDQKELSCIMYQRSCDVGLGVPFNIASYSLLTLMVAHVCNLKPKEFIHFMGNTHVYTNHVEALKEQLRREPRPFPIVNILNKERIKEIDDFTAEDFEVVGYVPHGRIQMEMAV
Description: Inhibitory concentration against Dihydrofolate reductase from Toxoplasma gondii (tg)

[2] = target: T2, Dihydrofolate reductase (Rattus norvegicus, UniProt Q920D2)
T2 sequence (Q920D2 whole entry): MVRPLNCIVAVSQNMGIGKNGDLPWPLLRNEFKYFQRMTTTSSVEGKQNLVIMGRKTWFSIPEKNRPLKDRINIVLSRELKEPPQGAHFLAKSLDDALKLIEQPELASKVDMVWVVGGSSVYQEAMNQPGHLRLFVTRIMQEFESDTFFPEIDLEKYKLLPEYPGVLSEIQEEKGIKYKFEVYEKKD
Description: Inhibitory concentration against Dihydrofolate reductase from Rat liver (rl)

[3] = target: T3, Dihydrofolate reductase (Pneumocystis carinii, UniProt P16184)
T3 sequence (P16184 whole entry): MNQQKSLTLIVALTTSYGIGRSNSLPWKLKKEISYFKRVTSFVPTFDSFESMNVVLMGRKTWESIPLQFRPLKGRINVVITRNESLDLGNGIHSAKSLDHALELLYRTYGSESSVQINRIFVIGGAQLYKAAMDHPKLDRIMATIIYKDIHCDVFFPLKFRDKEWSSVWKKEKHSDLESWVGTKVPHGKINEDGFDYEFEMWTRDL
Description: Inhibitory concentration against Dihydrofolate reductase from Pneumocystis carinii (pc)

Structure (SMILES)	IC50 [2]	IC50 [3]	IC50 [1]
COc1cc(CCc2cnc3nc(N)nc(N)c3c2)cc(OC)c1OC	1140 nM	–	200 nM
COc1cc(N(C)Cc2cnc3nc(N)nc(N)c3c2)cc(OC)c1OC	280 nM	–	–
COc1ccc(CCC2CNc3nc(N)nc(N)c3C2)cc1OC (stereo unspecified)	2100 nM	–	1100 nM
COc1cc(NCc2cnc3nc(N)nc(N)c3c2)cc(OC)c1OC	1900 nM	–	300 nM
CCN(Cc1cnc2nc(N)nc(N)c2c1)c1cc(OC)c(OC)c(OC)c1	120 nM	190 nM	49 nM
COc1cc(CCC2CNc3nc(N)nc(N)c3C2)cc(OC)c1OC (stereo unspecified)	6100 nM	61700 nM	470 nM

Second part, led by results:

IC50 [2]	IC50 [3]	Structure (SMILES)	IC50 [1]
2100 nM	2600 nM	COc1ccc(/C=C/c2cnc3nc(N)nc(N)c3c2)cc1OC	1400 nM
11800 nM	5300 nM	COc1ccc(/C=C/c2cnc3nc(N)nc(N)c3c2)cc1	1500 nM
610 nM	1400 nM	COc1ccc(CCc2cnc3nc(N)nc(N)c3c2)cc1OC	200 nM
12900 nM	> 5000 nM	COc1cc(/C=C/c2cnc3nc(N)nc(N)c3c2)cc(OC)c1OC	1400 nM
260 nM	290 nM	COc1ccc(CCc2cnc3nc(N)nc(N)c3c2)cc1	250 nM
7400 nM	18500 nM	COc1cc(N(C=O)Cc2cnc3nc(N)nc(N)c3c2)cc(OC)c1OC	1100 nM
